Experimental data from patent US11766472B2, “Method of treatment for hair loss” (priority 2021, dated 2023).
Like-named read-outs stand apart in the source and are kept apart here.

What was measured:
[1] = tested on: hair loss (men Norwood Hamilton grade III to grade V; women Ludwig grade II and III); settings: human, in vivo
Protocol: (§1) This controlled clinical trial compares the current treatment for hair loss within two controlled groups for both men and women against the use of one embodiment of the nutritional therapy regimen described herein. One hundred patients in each of the 4 groups, a total of 400 patients, were followed for 1 year. The progress was evaluated every 2 months with computerized measurements of hair density, hair caliber, global photography and uniquely designed self-assessment scores.
(§2) Group 3 TM: Treatment group for 100 men (TM) and
(§3) Group 4 TW: treatment group for 100 women (TW)
(§4) Treatment groups for both men and women followed the same protocol.

hair loss = settings: cited from earlier work
[2] = tested on: hair loss (men Norwood Hamilton grade III to grade V; women Ludwig grade II and III); assay: Controlled clinical trial: minoxidil and finasteride in men, minoxidil alone in women, versus nutrient treatment regimen (Example 1); settings: human, in vivo
Protocol: as §1, §2, §3, §4

CC(C)(C)NC(=O)[C@H]1CC[C@H]2[C@@H]3CC[C@H]4NC(=O)C=C[C@]4(C)[C@H]3CC[C@]12C [finasteride]
Side effects observed with the control group [1]: Loss of libido was reported by a few patients
Patients having deteriorated with hair loss more than the initial status (hair loss; after one year): 17%
Improvement (hair loss; end of 1 year): 48-59%
Non-responders (hair loss; end of 1 year): 41-52%

Nc1cc(N2CCCCC2)nc(N)[n+]1[O-] [minoxidil]
Duration for which patients complained of hair loss (initial shedding) [1]: 8-10 weeks
Side effects observed with the control group [2]: scalp irritation, dryness, itching, and frizzy hair
